In brackets after ≈: the same amount, converted by molar mass.
What was measured:
[1] = test system: Gram-negative and Gram-positive bacteria; conditions: in vitro tests with Gram-negative and Gram-positive bacteria; cited from earlier work
[2] = 50 mg/kg orally, fasted mice, after 30 minutes; cited from earlier work
[3] = test system: Gram-positive bacteria; assay: confirmatory experiment on the antibacterial activity of Compound α; type: cell-based
From the text: (§1) On the other hand, Compound α has only been reported to be useful as an intermediate material for the preparation of 9-fluoro-6, 7-dihydro-7-hydroxy-5-methyl-1-oxo-1H, 5H-benzo[ij]quinolizine-2-carboxylic acid (Japanese Patent Laid-Open No. 127,099/'76), and no detailed report on its antibacterial activity has been published.

[4] = test system: Gram-negative bacteria (such as Pseudomonas aeruginosa, Serratia marcescens and the like); assay: as above; type: cell-based
From the text: as §1

[5] = test system: Streptococcus faecalis AHU 1085; assay: minimal inhibitory concentration, in vitro antibacterial activity; type: cell-based; conditions: Enterococcus faecalis, AHU1085, 37° C., 20 hours
Procedure: (§2) The in vitro antibacterial activities of typical examples of the present compounds [I] were evaluated in terms of the minimal inhibitory concentration defined as the lowest concentration of the compound preventing the bacterial growth. The Gram-positive bacteria used as test microorganisms included Bacillus subtilis, Staphylococcus aureus and Streptococcus faecalis, and the Gram-negative bacteria used as test microorganisms included Escherichia coli, Enterobacter cloacae, Klebsiella pneumoniae, Proteus vulgaris, Pseudomonas aeruginosa, Serratia marcescens and Salmonella enteritidis. The minimal inhibitory concentration (cultured at 37° C. for 20 hours) was determined according to the standard method prescribed by the Japan Society of Chemotherapy (CHEMOTHERAPY, Vol. 29, No. 1, p. 76, 1981). The following compounds were used as typical examples of the present compounds [I]. At the end of the chemical name of each compound, its tentative designation is given in Parentheses.
(§3) For purposes of comparison, the in vitro antibacterial activities of ofloxacin, OPC-7241 and compound α were evaluated according to the same method as described above and the test results thus obtained are also shown in Table 1.

[6] = test system: Escherichia coli NIHJ JC-2; assay: as above; type: cell-based; conditions: NIHJJC2, 37° C., 20 hours
Procedure: as §2, §3

[7] = test system: Enterobacter cloacae 963; assay: as above; type: cell-based; conditions: 37° C., 20 hours
Procedure: as §2, §3

[8] = test system: Serratia marcescens IAM 1184; assay: as above; type: cell-based; conditions: IAM1184, 37° C., 20 hours
Procedure: as §2, §3

[9] = test system: Salmonella enteritidis G14; assay: as above; type: cell-based; conditions: Salmonella enterica, 37° C., 20 hours
Procedure: as §2, §3

[10] = test system: Pseudomonas aeruginosa NCTC 10490; assay: as above; type: cell-based; conditions: NCTC10490, 37° C., 20 hours
Procedure: as §2, §3

[11] = test system: Escherichia coli CI-304; assay: as above; type: cell-based; conditions: CI304, 37° C., 20 hours
Procedure: as §2, §3

[12] = test system: Staphylococcus aureus FDA 209P JC-1; assay: as above; type: cell-based; conditions: FDA209P, 37° C., 20 hours
Procedure: as §2, §3

[13] = test system: Proteus vulgaris ATCC 13315; assay: as above; type: cell-based; conditions: ATCC13315, 37° C., 20 hours
Procedure: as §2, §3

[14] = test system: Bacillus subtilis ATCC 6633; assay: as above; type: cell-based; conditions: ATCC6633, 37° C., 20 hours
Procedure: as §2, §3

[15] = test system: Klebsiella pneumoniae PCI 602; assay: as above; type: cell-based; conditions: PCI602, 37° C., 20 hours
Procedure: as §2, §3

[16] = test system: Escherichia coli CI-304; assay: therapeutic effect on experimentally induced infection in mice; type: in vivo, Escherichia coli CI-304 in male ddY strain mice; conditions: CI304, po, 168 h, orally, one hour after inoculation, survival after 7 days
Procedure: Using male ddY strain mice infected with Escherichia coli CI-304 (in groups of five; weighing 20±1 g), the therapeutic effect of some typical examples of the present compounds [I] was tested. The therapeutic effect was evaluated by administering each test compound orally to infected mice and calculating ED50 from the number of mice surviving after the lapse of 7 days. Infected mice were prepared by suspending cells of the aforesaid Escherichia coli strain in a 5% mucin solution and injecting this suspension into the peritoneal cavity of mice. The dose of the bacterial cells was ten times the minimal lethal dose which had previously been determined by a preliminary test. One hour after inoculation of the bacterial cells, each test compound was administered orally to the mice.
For purposes of comparison, ofloxacin and OPC-7241 were tested in the same manner as described above and the results thus obtained are also shown in Table 3.

[17] = enteral absorbability, serum concentration after oral administration to mice; type: in vivo; conditions: mouse, 50 mg/kg orally, fasted male ICR mice; for concentration at 0.5 h: 30 min.
Procedure: Using male ICR mice fasted overnight (weighing 20±1 g), the enteral absorbability of some typical examples of the present compounds [I] was tested. This test was carried out by administering 50 mg/kg of each test compound orally to mice and determining its serum concentration 30 minutes, 1 hour, 2 hours and 4 hours after administration. Five mice were used for each test point. At each test point, whole blood was collected from the mice by cardiac puncture and used to prepare serum samples. Concentrations of the test compounds in serum samples were determined by the paper disc method using Escherichia coli CI-304 as the test microorganism.
For purposes of comparison, the enteral absorbability of ofloxacin and OPC-7241 was tested in the same manner as described above and the results thus obtained are also shown in Table 2.

[18] = 1 mg/mouse (equivalent to 50 mg/kg) orally, cited from earlier work

MIC [5] [µg/mL]	MIC [6] [µg/mL]	MIC [7] [µg/mL]	MIC [8] [µg/mL]	MIC [9] [µg/mL]	MIC [10] [µg/mL]	MIC [11] [µg/mL]	MIC [12] [µg/mL]	MIC [13] [µg/mL]	MIC [14] [µg/mL]	MIC [15] [µg/mL]	concentration at 0.5 h [17] [ng/mL]	concentration at 1 h [17] [ng/mL]	concentration at 2 h [17] [ng/mL]	concentration at 4 h [17] [ng/mL]	Structure (SMILES)	ED50 [16] [mg/kg]	further results
															CCn1cc(C(=O)O)c(=O)c2cc(F)c(N3CCNCC3)cc21 [norfloxacin, 1-ethyl-6-fluoro-1,4-dihydro-7-(1-piperazinyl)-4-oxoquinoline-3-carboxylic acid]		antibacterial activity [1]: excellent antibacterial activity; degree of absorption into the serum, average peak value [2]: 1 ± 0.6 µg/mL
0.78 (≈ 2.16 µM)	0.2 (≈ 0.553 µM)	0.2 (≈ 0.553 µM)	0.78 (≈ 2.16 µM)	0.39 (≈ 1.08 µM)	0.78 (≈ 2.16 µM)	0.1 (≈ 0.277 µM)	0.2 (≈ 0.553 µM)	0.1 (≈ 0.277 µM)	0.1 (≈ 0.277 µM)	0.1 (≈ 0.277 µM)	9000	6200	2600	1200	CC1COc2c(N3CCN(C)CC3)c(F)cc3c(=O)c(C(=O)O)cn1c23 (stereo not shown) [Ofloxacin, 9-fluoro-3-methyl-10-(4-methyl-1-piperazinyl)-7-oxo-2,3-dihydro-7H-pyrido[1,2,3-de][1,4]benzoxazine-6-carboxylic acid, reference compound]	0.9	residual concentration in the serum ([18]; 2 hours after administration): 1.5 µg/mL; serum concentration ([18]; fasted mice, after 30 minutes): 10000 ng/mL
0.78 (≈ 2.09 µM)	0.2 (≈ 0.536 µM)	0.2 (≈ 0.536 µM)	1.56 (≈ 4.18 µM)	0.78 (≈ 2.09 µM)	0.78 (≈ 2.09 µM)	0.1 (≈ 0.268 µM)	0.39 (≈ 1.04 µM)	0.2 (≈ 0.536 µM)	0.1 (≈ 0.268 µM)	0.1 (≈ 0.268 µM)	24200	22400	12600	8400	CC1CC(=O)c2c(N3CCN(C)CC3)c(F)cc3c(=O)c(C(=O)O)cn1c23 (stereo not shown) [Compound 3, 9-Fluoro-5-methyl-8-(4-methyl-1-piperazinyl)-6,7-dihydro-1,7-dioxo-1H, 5H-benzo[ij]quinolizine-2-carboxylic acid]	0.52	

Structure (SMILES)	MIC [5] [µg/mL]	MIC [6] [µg/mL]	MIC [7] [µg/mL]	MIC [8] [µg/mL]	MIC [9] [µg/mL]	MIC [10] [µg/mL]	MIC [11] [µg/mL]	MIC [12] [µg/mL]	MIC [13] [µg/mL]	MIC [14] [µg/mL]	MIC [15] [µg/mL]	concentration at 0.5 h [17] [ng/mL]	concentration at 1 h [17] [ng/mL]	concentration at 2 h [17] [ng/mL]	concentration at 4 h [17] [ng/mL]	ED50 [16] [mg/kg]	further results
CC1CC(=O)c2cc(F)cc3c(=O)c(C(=O)O)cn1c23 (stereo not drawn) [Compound α, 9-fluoro-6,7-dihydro-1,7-dioxo-5-methyl-1H, 5H-benzo[ij]quinolizine-2-carboxylic acid, reference compound]	> 100	25 (≈ 90.8 µM)	12.5 (≈ 45.4 µM)	> 100	50 (≈ 182 µM)	> 100	12.5 (≈ 45.4 µM)	> 100	25 (≈ 90.8 µM)	12.5 (≈ 45.4 µM)	12.5 (≈ 45.4 µM)						efficacy against Gram-positive bacteria [3]: low; efficacy against Gram-negative bacteria [4]: utterly ineffective
